Reference: US6953801B2, “Melanin concentrating hormone receptor ligands: substituted 1-benzyl-4-aryl piperazine analogues” (Neurogen Corporation, priority 2001, dated 2005)

SMILES: COc1cc(N2CCN([C@H](C)c3ccc(OC)c(OC)c3)CC2)ccc1Cl [compound 4, (R)-1-(4-Chloro-3-Methoxy-Phenyl)-4-[1-(3,4-Dimethoxy-Phenyl)-Ethyl]-Piperazine]
- melting point: 172 to 176 °C
